Measured values published in patent EP4523686A1, “A SIGMA-1 RECEPTOR POSITIVE MODULATOR FOR ITS USE IN THE PREVENTION AND THE TREATMENT OF A PATHOLOGY” (priority 2023, dated 2025).

Tests used:
[1] = test system: Dizocilpine-induced learning impairments in mice; experiment: Step-through passive avoidance, Dizocilpine-induced learning impairments; format: in vivo
From the text: The apparatus is a two-compartments (15 × 20 × 15 cm high) box with one illuminated with white polyvinylchloride walls and the other darkened with black polyvinylchloride walls and a grid floor. A guillotine door separates each compartment. A 60 W lamp positioned 40 cm above the apparatus lights up the white compartment during the experiment. Scrambled foot shocks (0.3 mA for 3 s) could be delivered to the grid floor using a shock generator scrambler (Lafayette Instruments, Lafayette, USA). The guillotine door was initially closed during the training session. Each mouse was placed into the white compartment. After 5 s, the door was raised. When the mouse entered the darkened compartment and placed all its paws on the grid floor, the door is closed and the foot shocks delivered for 3 s. The step-through latency (STL-Tg), that is, the latency spent to enter the darkened compartment, and the number of vocalizations were recorded. The retention test was carried out 24 h after training. Each mouse was placed again into the white compartment. After 5 s, the door was raised. The step-through latency (STL-R) was recorded up to 300 s (Meunier et al., 2006, 2013; Villard et al., 2009, 2011). An exclusion criteria was STL-Tg and STL-R < 10 s. Animals showing these readouts are excluded from the calculations. Attrition is routinely < 5% in this test.

[2] = test system: wfs1ab^KO zebrafish larvae; experiment: Visual motor response in zebrafish larvae (hyperlocomotor response); format: in vivo
Procedure: The visual motor response assay quantifies the locomotor activity of the zebrafish larvae to light intensity changes. The protocol was previously described (Crouzier et al., 2021a, 2021b, 2022). In brief, 5 dpf larvae were transfered in a 96-well plate (#7701-1651, Whatman) with 300 µl of fish water and placed in a Zebrabox® (ViewPoint, Lissieu, France). The locomotor behavior was monitored using an automated videotracking device equipped with an infra-red (IR) camera under IR light illumination (Zebralab®, Viewpoint). The light protocol was as follow: 30 min of acclimatization in the dark (0% light intensity), then 2 cycles of 10-min duration light ON and 10-min duration light OFF periods. The brightness changes were immediate (<< 1 s). The activity was measured in mm/s. For each larva, the mobility were calculated as mean (OFF-ON) values to account for inter- and intra-group variability in locomotor response.
A phenotypic test described by Crouzier et al. (2022) was performed. […] Compounds were added in the fish water of larvae at 4 dpf for 24 h, and screening parameters included: (1) the lack of toxicity (including grossly observable morphological alterations) after 24 h exposure; (2) the locomotor increase in wfs1ab^KO larvae, expressed as % of V-treated wfs1ab^KO response; (3) the eventual alteration of locomotion in wfs1ab^WT larvae, expressed as % of V-treated wfs1ab^WT response; and (4) the Protection index (PI) calculated as detailed in the Methods section.

Wfs1^ΔExon8 mice [3] = experiment: Active avoidance in the rectangular water-maze, Wolfram syndrome mouse model; format: in vivo
Procedure: Non-spatial long-term memory was also examined using the successive training, place-learning procedure in the rectangular water-maze (Maurice et al., 1995, 2018). The apparatus is a black Plexiglas rectangular pool (30 × 60 × 36 cm high), filled with water at a high of 25 cm. The water temperature was maintained at 23 ± 1°C. A transparent Plexiglas platform (5 × 8.5 × 0.5 cm) was fixed in the southeast corner of the pool, 1 cm below the water surface. On acquisition days 1 and 2, each mouse was placed at the middle of the west side of the pool, facing the wall, and the latency to find the platform was recorded up to 60 s. The mouse was allowed to remain on it for 20 s, and then removed from the pool into its home cage. […] Each animal was run in this manner for a total of 5 trials on day 1, and 3 trials on day 2. […] A short-term memory (STM) index was defined as the mean difference in swimming duration between trial n and trial n-1 for trials 2 to 5 and 7 to 8. The STM index was analysed vs. zero level (= no improvement). On day 4, 48 h after the last training session, animals were tested for retention. The platform was removed. Each mouse was again placed at the starting point and observed for 60 s. The latency to reach the original platform location and the time spent on the platform location was recorded.

5-HT1B receptor = biological target: T1, 5-HT1B receptor (Homo sapiens, UniProt P28222); experiment: CEREP in vitro binding assay (pharmacological profiling)
T1 construct: CEREP

Wfs1^ΔExon8 mice [4] = experiment: Spontaneous alternation in the Y-maze, Wolfram syndrome mouse model; format: in vivo; details: 1 mg/Kg IP, 20 min before the Y-maze session
Procedure: The Y-maze is made of grey polyvinylchloride. Each arm is 40 cm long, 13 cm high, 3 cm wide at the bottom, 10 cm wide at the top, and converging at an equal angle. Each mouse was placed at the end of one arm and allowed to move freely through the maze during an 8 min session. The series of arm entries, including possible returns into the same arm, were checked visually. An alternation is defined as entries into all three arms on consecutive occasions. The number of maximum alternations is therefore the total number of arm entries minus two and the percentage of alternation was calculated as (actual alternations / maximum alternations) × 100 (Maurice et al., 1996; Meunier et al., 2006, 2013). Exclusion criteria are locomotion < 10 or percentage of alternation < 25% or > 90%. Animals showing these readouts are excluded from the calculations. Attrition is routinely < 5% in this test.

[5] = test system: panel of 47 receptors and ionophores; experiment: CEREP screen on a panel of 47 receptors and binding sites; details: all targets except CB2 receptors, Kv channels, 5-HT3 and 5-HT1B receptors
Procedure: Table 1 represents pharmacological profiling of convolamine which was tested at […] and 1 µM in in vitro binding assays designed with appropriate reference compounds in duplicates at CEREP facility.

[6] = probe test without platform, no drug injection

T1 sequence (P28222 whole entry): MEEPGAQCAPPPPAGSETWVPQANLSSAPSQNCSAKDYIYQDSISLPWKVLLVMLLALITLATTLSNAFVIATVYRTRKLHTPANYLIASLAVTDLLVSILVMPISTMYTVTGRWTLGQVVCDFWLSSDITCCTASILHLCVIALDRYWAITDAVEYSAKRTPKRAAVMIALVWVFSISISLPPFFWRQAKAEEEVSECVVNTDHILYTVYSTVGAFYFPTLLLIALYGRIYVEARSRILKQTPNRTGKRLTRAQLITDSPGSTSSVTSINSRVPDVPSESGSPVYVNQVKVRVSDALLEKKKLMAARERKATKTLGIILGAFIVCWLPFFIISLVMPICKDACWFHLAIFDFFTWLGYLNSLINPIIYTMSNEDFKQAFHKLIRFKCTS

## COc1ccc(C(=O)OC2CC3CCC(C2)N3C)cc1OC (stereo not drawn) [Convolamine, (8-methyl-8-azabicyclo[3.2.1]octan-3-yl) 3,4-dimethoxybenzoate]
[1]; Convolamine 1 mg/Kg IP with NE-100 1 mg/Kg
  convolamine effect on step-through latency under NE-100 co-treatment (in words): blocked
[1]; at 1 mg/kg IP
  Dizocilpine-induced decrease of step-through latency (in words): attenuated significantly
[1]; at 0.3-3 mg/kg IP
  Dizocilpine-induced increase of escape latency (in words): attenuated significantly
[2]; 0.3-3 µM concentration-range
  hyperlocomotor response of wfs1ab^KO zebrafish larvae (in words): dose-dependently abolished
[2]; 5 dpf larvae, 24 h exposure, 3 µM
  Protection index (PI): 1.0
[2]; at 3 µM in fish water
  hyperlocomotor response of wfs1ab^KO zebrafish (in words): completely prevented
[2]; co-treatment with NE-100 at 3 µM
  effect of convolamine on hyperlocomotor response under co-treatment with NE-100 (in words): attenuated
Wfs1^ΔExon8 mice [3]; IP 20 min before training sessions
  mild deficit of STM index (in words): not observed
Wfs1^ΔExon8 mice [3]; [6]
  latency to reach the platform location in the probe test (in words): attenuated these differences
  number of platform location crossings in the probe test (in words): attenuated these differences
5-HT1B receptor
  stimulation of specific binding: 30-40%
5-HT1B receptor; 0.1 µM, duplicates, negative = stimulation of binding
  inhibition at 0.1 µM: -33%
5-HT1B receptor; 1 µM, duplicates, negative = stimulation of binding
  inhibition at 1 µM: -38.6%
Wfs1^ΔExon8 mice [4]
  alteration of spontaneous alternation (in words): significantly attenuated
[5]
  activity on the panel of 47 receptors and ionophores (in words): inactive
